{
  "source": "patent US7510825B2",
  "about": "“Kits and methods for detection of apoptotic cells” (NST NeuroSurvival Technologies Ltd, priority 2000, dated 2009)",
  "key": {"[1]": {"system": "C26 colon carcinoma cells", "test": "Staining by DDC of C26 colon carcinoma cells treated with BiCNU, fluorescent microscopy", "format": "cell-based", "method": "For microscopic analysis the concentration of cells should be within 1-2×10^7/ml. […] If fixation is needed, it should be performed after DDC staining. • 1. Adjusting the cells to 1-2×10^7/ml in buffer. • 2. Transferring 96 μl from the cell suspension to an eppendorf and staining the cells by adding 4 μl from the DDC solution. Incubating for 10-40 minutes at RT protected from light. • 3. A double labeling could be conducted with PI, if desired. In such a case, 1 μl is added from the PI solution. • 4, Placing the cell suspension on a glass slide. Covering the cells with a glass coverslip. Alternatively, for analyzing adherent cells, cells may grow directly on coverslip. Staining the cells by incubation with DDC (4 μl of DDC/96 μl buffer reaction) or 10-40 minutes and PI (1 μl). Covering the slide with a coverslip and visualizing the cells. […] Observing the cells under fluorescent or confocal microscope equipped with the appropriate UV filter (excitation at 360-370 nm, band pass, and emission at 420 nm, barrier filter. Using a Triple filter (Hoechst/FITC/Texas Red) allows concomitant observation of both DDC and PI. Quantitative Assay for DDC Accumulation using Fluorescene Spectroscopy\n26 colon carcinoma cells were treated with 0.5 mM BiCNU for 2 hr and stained with DDC (as detailed in the DDC protocols IIIC). Cells were analyzed by fluorescent microscope under a UV filter."}, "[2]": {"system": "ischemic brain, damaged neuronal cells", "test": "DDC staining of ischemic damage following transient MCA occlusion", "format": "in vivo, rats", "settings": "2 h MCA occlusion and reperfusion, DDC at 22 hours", "method": "A. Administration of DDC in-vivo: Injection of 200 μl of DDC intravenously. Following 1-2 hours, animal is sacrificed, and the desired organ is placed in a test tube or on a small plate, suitable for liquid nitrogen freezing. The plate is then covered with an aluminum foil, and transferred to liquid nitrogen. Following 5-30 minutes the specimen is being frozen to −80° C. and kept at −80° C. for at least 16 hr. B. Analysis of the Specimen: • a. Whole organ imaging Ex-vivo whole organ fluorescence imaging may be carried out on freshly excised specimen, that can be analyzed under a stereomicroscope (such as Leica MZ FL III, Leica Switzerland). […] Emitted fluorescence can be imaged using appropriate camera and software, such as a Leica DC 300F Distal camera and images can be processed and analyzed by Leica QWin Lite software. • b. […] Analysis of the tissue sections can be performed using a fluorescence microscope with a UV filter characterized by excitation at 360-370 nm (band pass) and emission at 420 nm (barrier filter) In case that staining of the examined tissue is desired, the following procedures can be applied:\nTransient focal ischemia was induced by middle cerebral artery (MCA) occlusion and reperfusion. […] At 22 hours from MCA occlusion, neurological score was assessed and DDC was injected I.V. (as detailed in DDC protocols II-A) for a successive 2 h before sacrificing the animals. […]"}, "[3]": {"system": "red blood cells (RBC)", "test": "Selective binding of DDC to activated red blood cells, flow cytometry", "format": "cell-based", "settings": "DDC 500 μM", "method": "Activation of intact RBC, was induced by a combined treatment with N-ethylmaleimide (NEM) and calcium ionophore, in the presence of Ca 2+.\nFresh RBC were obtained, diluted to 0.1 of their initial volume with buffer A (143 mM NaCl; 2 mM KCl; 0.1% Glucose; 10 mM NaH2PO4; pH=7.4), and washed 4 times in the above buffer. Cells were then re-suspended in buffer B (55 mM NaCl; 90 mM KCl, 0.1% glucose, 10 mM HEPES; pH=7.4). These cells were thereafter used as control cells. For activation, the cells were treated for 15-60 min at 37° C. with a combination of 2 mM CaCl, 5 μM of the Calcium ionophore A23187 and 5 mm of NEM. Cells were then washed twice with buffer B containing 0.1% of bovine serum albumin, and finally re-suspended in Buffer B containing 2 mM CaCl2 For examination of binding of DDC to the cells, DDC was dissolved in 0.1M NaPPi, pH=7.4, at a stock concentration of 1 mM. Binding assays were performed at a final concentration of 500 μM, and level of binding was evaluated by flow cytometry."}, "[4]": {"system": "C26 colon carcinoma tumors", "test": "DDC binding versus TUNEL and H&E in colon carcinoma after Doxorubicin", "format": "in vivo, mice", "settings": "48 h after Doxorubicin 20 mg/kg; consecutive slides", "method": "A. Administration of DDC in-vivo: Injection of 200 μl of DDC intravenously. Following 1-2 hours, animal is sacrificed, and the desired organ is placed in a test tube or on a small plate, suitable for liquid nitrogen freezing. The plate is then covered with an aluminum foil, and transferred to liquid nitrogen. Following 5-30 minutes the specimen is being frozen to −80° C. and kept at −80° C. for at least 16 hr. B. Analysis of the Specimen: • a. Whole organ imaging Ex-vivo whole organ fluorescence imaging may be carried out on freshly excised specimen, that can be analyzed under a stereomicroscope (such as Leica MZ FL III, Leica Switzerland). DDC may be visualized using 360cx and >420cm nm filter set. Emitted fluorescence can be imaged using appropriate camera and software, such as a Leica DC 300F Distal camera and images can be processed and analyzed by Leica QWin Lite software. • b. Histological analysis, from the frozen organ or tissue, 4 μm cryosections are prepared on slides. Analysis of the tissue sections can be performed using a fluorescence microscope with a UV filter characterized by excitation at 360-370 nm (band pass) and emission at 420 nm (barrier filter) In case that staining of the examined tissue is desired, the following procedures can be applied: […]"}, "[5]": {"system": "C26 colon carcinoma cells", "test": "Time course of DDC binding to C26 colon carcinoma cells treated with BiCNU", "format": "cell-based", "settings": "0.5 mM BiCNU for 2 hr", "method": "For microscopic analysis the concentration of cells should be within 1-2×10^7/ml. […] If fixation is needed, it should be performed after DDC staining. • 1. Adjusting the cells to 1-2×10^7/ml in buffer. • 2. Transferring 96 μl from the cell suspension to an eppendorf and staining the cells by adding 4 μl from the DDC solution. Incubating for 10-40 minutes at RT protected from light. • 3. A double labeling could be conducted with PI, if desired. In such a case, 1 μl is added from the PI solution. • 4, Placing the cell suspension on a glass slide. Covering the cells with a glass coverslip. Alternatively, for analyzing adherent cells, cells may grow directly on coverslip. Staining the cells by incubation with DDC (4 μl of DDC/96 μl buffer reaction) or 10-40 minutes and PI (1 μl). Covering the slide with a coverslip and visualizing the cells. If desired, at that point the cells can be washed and fixed in 1% formaldehyde before visualization. Mounting should be done in a solution of 50% glycerol/PBS (v/v). • 5. Observing the cells under fluorescent or confocal microscope equipped with the appropriate UV filter (excitation at 360-370 nm, band pass, and emission at 420 nm, barrier filter. Using a Triple filter (Hoechst/FITC/Texas Red) allows concomitant observation of both DDC and PI. Quantitative Assay for DDC Accumulation using Fluorescene Spectroscopy […]"}},
  "data": [
    {"smiles": "CN(C)c1cccc2c(S(=O)(=O)NC(CSSCC(NS(=O)(=O)c3cccc4c(N(C)C)cccc34)C(=O)O)C(=O)O)cccc12", "note": "(centres unmarked) [DDC]", "values": [
      {"measurement": "stained cells in culture", "setting": "[1]; 0.5 mM BiCNU for 2 hr", "result": "marked increase in the number of the stained cells"},
      {"measurement": "stained cells in culture", "setting": "[1]; control culture", "result": "small percentage of stained cells"},
      {"measurement": "DDC staining around the ischemic core and in the non-damaged contra-lateral hemisphere", "setting": "[2]", "result": "No staining was detected"},
      {"measurement": "DDC staining of the ischemic core", "setting": "[2]; ex-vivo coronal section", "result": "high intensity staining"},
      {"measurement": "staining of red blood cells with DDC", "setting": "[3]; RBC activated by NEM, calcium ionophore A23187 and Ca2+", "result": "substantial shift to higher fluorescence levels"},
      {"measurement": "staining of red blood cells with DDC", "setting": "[3]; intact RBC", "result": "did not stain significantly"},
      {"measurement": "correlation of DDC staining with H&E and TUNEL staining", "setting": "[4]", "result": "highly correlated with both H&E (C) and TUNEL (B) staining"},
      {"measurement": "time to staining of apoptotic cells", "setting": "[5]", "result": "≤ 40", "unit": "s"}
    ]}
  ]
}
